According to EPA's ToxRefDB 2:

What was measured:
[1] = system: rabbit; conditions: Prenatal developmental toxicity study, new zealand white, Oral, Gavage/Intubation, dose end: 19 GD, group: maternal
[2] = system: rat; conditions: Prenatal developmental toxicity study, sprague dawley, Oral, Gavage/Intubation, dose end: 17 GD
[3] = system: dog; conditions: Chronic toxicity; beagle; Oral; Capsule; dose end: 26 week; group: systemic; systemic / in life observation / body weight / body weight gain + systemic / in life observation / clinical signs / [other] + systemic / in …
[4] = system: dog; conditions: Sub-acute repeat dose toxicity, beagle, Oral, Capsule, dose end: 4 week, group: systemic
[5] = system: rabbit; conditions: Prenatal developmental toxicity study, new zealand white, Oral, Gavage/Intubation, dose end: 19 GD, group: maternal; remark: listed apart in the source
[6] = system: rat; conditions: Fertility (Segment I); sprague dawley; Oral; Gavage/Intubation; dose end: 7 GD; group: parental; systemic / in life observation / body weight / body weight + systemic / in life observation / clinical signs / abnormal gait + systemic / in…
[7] = system: rat; conditions: Prenatal developmental toxicity study, sprague dawley, Oral, Gavage/Intubation, dose end: 17 GD; remark: listed apart in the source
[8] = system: rat; conditions: Sub-acute repeat dose toxicity, sprague dawley, Oral, Gavage/Intubation, dose end: 28 day, group: systemic
[9] = system: rat; conditions: Multigenerational reproductive toxicity study, sprague dawley, Oral, Water, dose end: 3 generation, systemic / pathology microscopic / liver / apoptosis + systemic / pathology microscopic / liver / glycogen deposition
[10] = system: rat; conditions: Peri- and post-natal toxicity study (Segment III), sprague dawley, Oral, Gavage/Intubation, dose end: 5 PND
[11] = systemic / in life observation / body weight / body weight gain + systemic / in life observation / food consumption / food consumption
[12] = systemic / in life observation / body weight / body weight gain + systemic / in life observation / food consumption / food consumption + …
[13] = group: developmental, developmental / developmental malformation / mouth / jaw / cleft palate
[14] = group: maternal, systemic / in life observation / body weight / body weight gain + systemic / in life observation / clinical signs / abnormal gait + systemic…
[15] = systemic / clinical chemistry / albumin / albumin + systemic / clinical chemistry / cholesterol / cholesterol + systemic / clinical …
[16] = systemic / clinical chemistry / cholesterol / cholesterol + systemic / clinical chemistry / lipids / phospholipids
[17] = systemic / in life observation / body weight / body weight gain + systemic / in life observation / clinical signs / defecation + systemic / …
[18] = systemic / in life observation / clinical signs / abnormal feces + systemic / in life observation / clinical signs / body cold to touch + …
[19] = group: developmental, developmental / developmental malformation / mouth / jaw / cleft palate + systemic / in life observation / body weight / fetal weight
[20] = group: maternal, systemic / in life observation / clinical signs / impaired righting reflex + systemic / in life observation / clinical signs / piloerection
[21] = systemic / in life observation / clinical signs / unsteady gait + systemic / in life observation / body weight / body weight gain
[22] = systemic / in life observation / clinical signs / unsteady gait + systemic / in life observation / body weight / body weight gain + systemic…
[23] = group: developmental, developmental / offspring survival late / viability index / viability index + developmental / developmental landmark / vaginal opening / …
[24] = group: maternal, reproductive / offspring survival early / dead fetuses / dead fetuses
[25] = group: offspring, systemic / in life observation / body weight / offspring (pup) weight
[26] = group: offspring, systemic / in life observation / body weight / offspring (pup) weight + systemic / organ weight / prostate / absolute + systemic / organ …

COc1cccc(-c2ccc(/C=C\CN3CCCCCC3)cc2Cl)c1.Cl
LEL [1, 11]: 35 mg/kg/day | LOAEL [1, 11]: 35 mg/kg/day | NEL [1, 12]: 15 mg/kg/day | NOAEL [1, 12]: 15 mg/kg/day | LEL [2, 13]: 75 mg/kg/day | LOAEL [2, 13]: 75 mg/kg/day | NEL [2, 13]: 35 mg/kg/day | NOAEL [2, 13]: 35 mg/kg/day | LEL [2, 14]: 35 mg/kg/day | LOAEL [2, 14]: 35 mg/kg/day | NEL [2, 14]: 15 mg/kg/day | NOAEL [2, 14]: 15 mg/kg/day | LEL [3]: 15 mg/kg/day | LOAEL [3]: 15 mg/kg/day | NEL [3]: 7.5 mg/kg/day | NOAEL [3]: 7.5 mg/kg/day | LOAEL [4, 15]: 10 mg/kg/day | NOAEL [4, 15]: 5 mg/kg/day | LEL [4, 16]: 5 mg/kg/day | NEL [4, 16]: < 5 mg/kg/day | LEL [5, 17]: 25 mg/kg/day | NEL [5, 17]: < 25 mg/kg/day | LOAEL [5, 18]: > 150 mg/kg/day | NOAEL [5, 18]: ≥ 150 mg/kg/day | LEL [6]: 90 mg/kg/day | LOAEL [6]: 90 mg/kg/day | NEL [6]: 30 mg/kg/day | NOAEL [6]: 30 mg/kg/day | LEL [7, 13]: 60 mg/kg/day | LOAEL [7, 13]: 60 mg/kg/day | NEL [7, 19]: 30 mg/kg/day | NOAEL [7, 19]: 30 mg/kg/day | LEL [7, 20]: 30 mg/kg/day | LOAEL [7, 20]: 30 mg/kg/day | NEL [7, 20]: < 30 mg/kg/day | NOAEL [7, 20]: < 30 mg/kg/day | LOAEL [8, 21]: 30 mg/kg/day | NOAEL [8, 21]: < 30 mg/kg/day | LEL [8, 22]: 30 mg/kg/day | NEL [8, 22]: < 30 mg/kg/day

CCCCCCCCc1ccc(O)cc1 [4-Octylphenol]
LEL ([9]; group: offspring): 1.25 mg/kg/day | LOAEL ([9]; group: offspring): > 1.25 mg/kg/day | NEL ([9]; group: offspring): < 1.25 mg/kg/day | NOAEL ([9]; group: offspring): ≥ 1.25 mg/kg/day | LEL ([9]; group: parental): 1.25 mg/kg/day | LOAEL ([9]; group: parental): > 1.25 mg/kg/day | NEL ([9]; group: parental): < 1.25 mg/kg/day | NOAEL ([9]; group: parental): ≥ 1.25 mg/kg/day | LEL ([10]; group: developmental, developmental / developmental landmark / vaginal opening / vaginal opening + developmental / developmental landmark / preputial separation…): 50 mg/kg/day | LOAEL [10, 23]: > 100 mg/kg/day | NEL [10, 23]: 25 mg/kg/day | NOAEL [10, 23]: ≥ 100 mg/kg/day | LEL [10, 24]: 50 mg/kg/day | LOAEL [10, 24]: > 100 mg/kg/day | NEL [10, 24]: 25 mg/kg/day | NOAEL [10, 24]: ≥ 100 mg/kg/day | LOAEL [10, 25]: 25 mg/kg/day | NOAEL [10, 25]: 12.5 mg/kg/day | LEL [10, 26]: 12.5 mg/kg/day | NEL [10, 26]: < 12.5 mg/kg/day
